Measurements published in publication PMC8370991, “Structural basis for the inhibition of HTLV-1 integration inferred from cryo-EM deltaretroviral intasome structures” (Nature Communications, 2021).
Read-outs that look alike come from different tables or passages of the source.

Columns and labels:
recombinant HTLV-1 IN [1] = target: T1, recombinant HTLV-1 IN (Human T-cell leukemia virus 1, UniProt P03362); test: In vitro integration strand transfer assay with HTLV-1 IN; type: biochemical; conditions: INSTI at 634 nM
T1 construct: made in house
T1 sequence (P03362 1168-1462): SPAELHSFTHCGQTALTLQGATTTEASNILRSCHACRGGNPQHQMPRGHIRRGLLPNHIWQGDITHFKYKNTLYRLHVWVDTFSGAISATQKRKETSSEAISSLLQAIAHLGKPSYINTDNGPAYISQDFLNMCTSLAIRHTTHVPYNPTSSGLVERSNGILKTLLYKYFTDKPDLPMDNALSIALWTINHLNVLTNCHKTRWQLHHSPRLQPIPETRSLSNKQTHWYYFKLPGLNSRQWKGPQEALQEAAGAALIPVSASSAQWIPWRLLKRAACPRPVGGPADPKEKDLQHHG
Method: We used in vitro strand transfer assays to screen this small molecule library for its ability to inhibit recombinant HTLV-1 IN. The enzyme was incubated with an oligonucleotide vDNA donor mimic in the presence or absence of INSTIs and was allowed to react with a supercoiled plasmid mimicking target DNA. During the screening, the concentration of each compound was adjusted to 634 nM to provide optimal resolution of efficacy between well- and under-performing compounds.
The donor vDNA that mimics the 3′-processed LTR of HTLV-1 or STLV-1 DNA was preassembled by annealing the U5_S20Q_UP and U5_S20Q_B or MarB43_U5_S30UP or MarB43_U5_S30B oligonucleotides, respectively (Supplementary Table 4) in 100 mM Tris pH 7.4, 400 mM NaCl. For HTLV-1 IN, strand transfer reactions were conducted in a solution of 24.3 mM PIPES pH 6.0, 138.4 mM NaCl, 16.6 mM MgCl2, 5.8 μM ZnCl2, 12.7 mM DTT, 0.53 μM donor DNA and 4 μg of HTLV-1 IN[9],[39]. In brief, the reaction was incubated at RT for 15 min in the presence of an INSTI or dimethyl sulfoxide (DMSO) control and the reaction was started by the addition of 300 ng of pGEM-9Zf(-) supercoiled plasmid DNA. The reaction was incubated for 1 h at 37 °C and stopped by adding 0.5% SDS and 25 mM ethylenediaminetetraacetic acid (EDTA), pH 8.0.
(§1) Proteins were degraded by incubation with 30 μg of proteinase K (Roche) at 37 °C for 1 h. DNA was precipitated at −20 °C overnight in the presence of ethanol supplemented with 20 μg of glycogen and then resuspended in 1.5× agarose loading dye. The DNA products were separated by electrophoresis through 1.5% agarose gel and stained with ethidium bromide and imaged using the BioRad GelDox XR + imager. The data were analysed and the IC50 calculated as previously described. In brief, the DNA band that corresponds to the concerted integration product was quantified by densitometry in ImageLab 4.1 (Bio-Rad). All experiments were done in triplicate. Quantified data points were fitted to dose–response curves in Prism 9. The cumulative standard deviation for each drug was calculated as an average of the upper limit and lower limit values: Lowerlimit=IC50/10^logSE(IC50) Upperlimit=IC50×10^logSE(IC50)

STLV-1 IN (WT) = test: In vitro strand transfer assay with wild-type STLV-1 IN; type: biochemical; parameters: STLV-1 WT strand transfer activity: unit not given here
Method: (§2) For STLV-1 IN, the reaction conditions were 25 mM BTP-HCl pH 6, 0.1 μM STLV-1 IN, 2 μM vDNA, 60 mM NaCl, 13.28 mM DTT, 10 mM MgCl2, 10 μM ZnCl2. STLV-1 IN and LEDGF/ΔIBD-B56γ were co-incubated at the above conditions at a 2:1 molar ratio, at 4 °C for 30 min. Donor vDNA was then added and the mixture was co-incubated at 37 °C for 10 min. For INSTI dose–response experiments, either the INSTI or DMSO control was then added, the sample was mixed and kept at 4 °C for an additional 15 min. Strand-transfer reactions were initiated by the addition of 300 ng of pGEM-9Zf(-) supercoiled plasmid DNA and stopped after 15 min of 37 °C incubation by adding 0.5% SDS and 25 mM EDTA, pH 8.0.
as §1

STLV-1 IN(A219E) = test: In vitro strand transfer assay with STLV-1 IN(A219E); type: biochemical; parameters: STLV-1 A219E strand transfer activity: unit not given here
Method: as §2, §1

recombinant HTLV-1 IN [2] = target: T1, recombinant HTLV-1 IN; conditions: previously obtained values, cited from earlier work
HTLV-1 = conditions: cited from earlier work
HIV-1 = conditions: cited from earlier work
[3] = log10 concentration -3.69897, column 1 of 3
[4] = log10 concentration -3.69897, column 2 of 3
[5] = log10 concentration -4.69897, column 1 of 3
[6] = log10 concentration -4.69897, column 2 of 3
[7] = log10 concentration -5.69897, column 1 of 3
[8] = log10 concentration -5.69897, column 2 of 3
[9] = log10 concentration -6.19791, column 1 of 3
[10] = log10 concentration -6.19791, column 2 of 3
[11] = log10 concentration -6.69897, column 1 of 3
[12] = log10 concentration -6.69897, column 2 of 3
[13] = log10 concentration -7.19791, column 1 of 3
[14] = log10 concentration -7.19791, column 2 of 3
[15] = log10 concentration -7.69897, column 1 of 3
[16] = log10 concentration -7.69897, column 2 of 3
[17] = log10 concentration -8.69897, column 1 of 3
[18] = log10 concentration -8.69897, column 2 of 3
[19] = log10 concentration -10.699, column 1 of 3
[20] = log10 concentration -10.699, column 2 of 3

Cc1nnc(C(=O)NC(C)(C)c2nc(C(=O)NCc3ccc(F)cc3)c(O)c(=O)n2C)o1 [Raltegravir]
HTLV-1 IN strand transfer activity (No drug = 100) (recombinant HTLV-1 IN [1]; Replicate 1): 34.4506%
HTLV-1 IN strand transfer activity (No drug = 100) (recombinant HTLV-1 IN [1]; Replicate 2): 36.5909%
sensitivity of STLV-1 IN to the inhibitor (STLV-1 IN (WT); Supplementary Fig. 9): highly sensitive
STLV-1 WT strand transfer activity (STLV-1 IN (WT); log10 concentration -3.69897): 15.0259
STLV-1 WT strand transfer activity (STLV-1 IN (WT); [3]): 3.382
STLV-1 WT strand transfer activity (STLV-1 IN (WT); [4]): 1.339
STLV-1 WT strand transfer activity (STLV-1 IN (WT); log10 concentration -4.69897): 15.0259
STLV-1 WT strand transfer activity (STLV-1 IN (WT); [5]): 1.932
STLV-1 WT strand transfer activity (STLV-1 IN (WT); [6]): 3.125
STLV-1 WT strand transfer activity (STLV-1 IN (WT); log10 concentration -5.69897): 25.9067
STLV-1 WT strand transfer activity (STLV-1 IN (WT); [7]): 14.0097
STLV-1 WT strand transfer activity (STLV-1 IN (WT); [8]): 13.3929
STLV-1 WT strand transfer activity (STLV-1 IN (WT); log10 concentration -6.19791): 38.342
STLV-1 WT strand transfer activity (STLV-1 IN (WT); [9]): 20.7729
STLV-1 WT strand transfer activity (STLV-1 IN (WT); [10]): 15.625
STLV-1 WT strand transfer activity (STLV-1 IN (WT); log10 concentration -6.69897): 40.9326
STLV-1 WT strand transfer activity (STLV-1 IN (WT); [11]): 26.57
STLV-1 WT strand transfer activity (STLV-1 IN (WT); [12]): 43.3036
STLV-1 WT strand transfer activity (STLV-1 IN (WT); log10 concentration -7.19791): 63.2124
STLV-1 WT strand transfer activity (STLV-1 IN (WT); [13]): 62.3188
STLV-1 WT strand transfer activity (STLV-1 IN (WT); [14]): 68.75
STLV-1 WT strand transfer activity (STLV-1 IN (WT); log10 concentration -7.69897): 94.3005
STLV-1 WT strand transfer activity (STLV-1 IN (WT); [15]): 86.4734
STLV-1 WT strand transfer activity (STLV-1 IN (WT); [16]): 94.1964
STLV-1 WT strand transfer activity (STLV-1 IN (WT); log10 concentration -8.69897): 91.7098
STLV-1 WT strand transfer activity (STLV-1 IN (WT); [17]): 100.483
STLV-1 WT strand transfer activity (STLV-1 IN (WT); [18]): 99.1071
STLV-1 WT strand transfer activity (STLV-1 IN (WT); log10 concentration -9.69897): 106.218
STLV-1 WT strand transfer activity (STLV-1 IN (WT); log10 concentration -9.69897, column 1 of 3): 101.449
STLV-1 WT strand transfer activity (STLV-1 IN (WT); log10 concentration -9.69897, column 2 of 3): 100.446
STLV-1 WT strand transfer activity (STLV-1 IN (WT); log10 concentration -10.699): 100.518
STLV-1 WT strand transfer activity (STLV-1 IN (WT); [19]): 102.415
STLV-1 WT strand transfer activity (STLV-1 IN (WT); [20]): 99.5536
IC50 with STLV-1 IN A219E compared with wild-type STLV-1 IN (STLV-1 IN(A219E); Supplementary Fig. 9): nearly identical
STLV-1 A219E strand transfer activity (STLV-1 IN(A219E); log10 concentration -3.69897): 4.375
STLV-1 A219E strand transfer activity (STLV-1 IN(A219E); [3]): 11.7647
STLV-1 A219E strand transfer activity (STLV-1 IN(A219E); [4]): 5.393
STLV-1 A219E strand transfer activity (STLV-1 IN(A219E); log10 concentration -4.69897): 6.875
STLV-1 A219E strand transfer activity (STLV-1 IN(A219E); [5]): 7.843
STLV-1 A219E strand transfer activity (STLV-1 IN(A219E); [6]): 4.103
STLV-1 A219E strand transfer activity (STLV-1 IN(A219E); log10 concentration -5.69897): 7.8125
STLV-1 A219E strand transfer activity (STLV-1 IN(A219E); [7]): 11.7647
STLV-1 A219E strand transfer activity (STLV-1 IN(A219E); [8]): 9.8476
STLV-1 A219E strand transfer activity (STLV-1 IN(A219E); log10 concentration -6.19791): 12.6562
STLV-1 A219E strand transfer activity (STLV-1 IN(A219E); [9]): 16.6667
STLV-1 A219E strand transfer activity (STLV-1 IN(A219E); [10]): 12.4267
STLV-1 A219E strand transfer activity (STLV-1 IN(A219E); log10 concentration -6.69897): 25.4688
STLV-1 A219E strand transfer activity (STLV-1 IN(A219E); [11]): 27.9412
STLV-1 A219E strand transfer activity (STLV-1 IN(A219E); [12]): 28.136
STLV-1 A219E strand transfer activity (STLV-1 IN(A219E); log10 concentration -7.19791): 49.375
STLV-1 A219E strand transfer activity (STLV-1 IN(A219E); [13]): 64.2157
STLV-1 A219E strand transfer activity (STLV-1 IN(A219E); [14]): 59.4373
STLV-1 A219E strand transfer activity (STLV-1 IN(A219E); log10 concentration -7.69897): 90.625
STLV-1 A219E strand transfer activity (STLV-1 IN(A219E); [15]): 108.333
STLV-1 A219E strand transfer activity (STLV-1 IN(A219E); [16]): 86.2837
STLV-1 A219E strand transfer activity (STLV-1 IN(A219E); log10 concentration -8.69897): 101.406
STLV-1 A219E strand transfer activity (STLV-1 IN(A219E); [17]): 107.843
STLV-1 A219E strand transfer activity (STLV-1 IN(A219E); [18]): 97.5381
STLV-1 A219E strand transfer activity (STLV-1 IN(A219E); log10 concentration -10.699): 97.9688
STLV-1 A219E strand transfer activity (STLV-1 IN(A219E); [19]): 103.922
STLV-1 A219E strand transfer activity (STLV-1 IN(A219E); [20]): 99.8828
IC50 (recombinant HTLV-1 IN [2]; Replicate 1, read-out: HTLV-1 IN strand transfer IC50): 477 nM
IC50 (recombinant HTLV-1 IN [2]; Replicate 2, read-out: HTLV-1 IN strand transfer IC50): 425 nM
IC50 (recombinant HTLV-1 IN [2]; Replicate 3, read-out: HTLV-1 IN strand transfer IC50): 344 nM
IC50 (recombinant HTLV-1 IN [2]; integrase strand-transfer, read-out: HTLV-1 IC50 ± stdev): 410 ± 78.5 nM
EC50 (HTLV-1; MT-2-Jurkat cell-to-cell infection, read-out: HTLV-1 EC50): 6.42 ± 4.24 nM
EC50 (HTLV-1; Replicate 1, previously reported values, read-out: HTLV-1 infection EC50): 7.85 nM
EC50 (HTLV-1; Replicate 2, previously reported values, read-out: HTLV-1 infection EC50): 8.18 nM
EC50 (HTLV-1; Replicate 3, previously reported values, read-out: HTLV-1 infection EC50): 4.08 nM
EC50 (HIV-1; HIV-1 infection model, supplementary ref 18, read-out: HIV-1 EC50 ± stdev): 9.4 ± 1.4 nM
EC50 (HIV-1; previously reported, read-out: EC50, infection by wild-type HIV-1): 4 ± 2 nM
